In ChEMBL document CHEMBL3882737, “Fused heterocyclic compounds as ion channel modulators” (2013):

Legend:
Oryctolagus cuniculus [1] = experiment: Anti-ischemic activity in anesthetized New Zealand rabbit heart assessed as reduction in ischemia-induced ST segment elevation by measuring MAPD90_ATX levels at 1 uM plasma concentration at 0.1 to 0.4 mg/kg, iv bolus dose dosed 30 mins before ischemia followed by reperfusion; format: functional
[2] = molecular target: Sodium channel protein type 5 subunit alpha (Homo sapiens, UniProt Q14524); experiment: Inhibition of human NaV1.5 expressed in HEK293 cells assessed as blocking of tefluthrin-induced late sodium currents at 1 uM using -20 mV voltage steps at holding potential of -120 mV by whole cell patch clamp Qpatch method; format: cell-based
Oryctolagus cuniculus [3] = experiment: Effect on blood pressure in anesthetized New Zealand rabbit ischemia-induced ST segment elevation model at 0.1 to 0.4 mg/kg, iv bolus dose dosed 30 mins before ischemia followed by reperfusion; format: ADME, organism-based; settings: in vivo, 0.5 h
Oryctolagus cuniculus [4] = experiment: Effect on heart rate in anesthetized New Zealand rabbit ischemia-induced ST segment elevation model at 0.1 to 0.4 mg/kg, iv bolus dose dosed 30 mins before ischemia followed by reperfusion; format: ADME, organism-based; settings: in vivo, 0.5 h
Oryctolagus cuniculus [5] = experiment: Effect on ECG intervals in anesthetized New Zealand rabbit ischemia-induced ST segment elevation model at 0.1 to 0.4 mg/kg, iv bolus dose dosed 30 mins before ischemia followed by reperfusion; format: ADME, organism-based; settings: in vivo, 0.5 h
Oryctolagus cuniculus [6] = experiment: Anti-ischemic activity in anesthetized New Zealand rabbit heart assessed as reduction in ischemia-induced ST segment elevation at 0.1 to 0.4 mg/kg, iv bolus dose dosed 30 mins before ischemia followed by reperfusion; format: functional, organism-based
Oryctolagus cuniculus [7] = experiment: Anti-ischemic activity in anesthetized New Zealand rabbit heart assessed as reduction in ischemia-induced myocardial electrical dysfunction at 0.1 to 0.4 mg/kg, iv bolus dose dosed 30 mins before ischemia followed by reperfusion; format: functional, organism-based
[8] = molecular target: NaV1.5 (peak sodium current) (Homo sapiens, UniProt Q14524); experiment: Inhibition of human NaV1.5 expressed in HEK293 cells assessed as use dependent blocking of cell membrane depolarization-induced peak sodium currents at 1 uM at 0 mV and 3 Hz stimulation at holding potential of -100 mV by whole cell patch clamp Qpatch method; format: cell-based; settings: HEK293 cells that express human NaV1.5
Sequence of NaV1.5 (peak sodium current) (Q14524 whole entry): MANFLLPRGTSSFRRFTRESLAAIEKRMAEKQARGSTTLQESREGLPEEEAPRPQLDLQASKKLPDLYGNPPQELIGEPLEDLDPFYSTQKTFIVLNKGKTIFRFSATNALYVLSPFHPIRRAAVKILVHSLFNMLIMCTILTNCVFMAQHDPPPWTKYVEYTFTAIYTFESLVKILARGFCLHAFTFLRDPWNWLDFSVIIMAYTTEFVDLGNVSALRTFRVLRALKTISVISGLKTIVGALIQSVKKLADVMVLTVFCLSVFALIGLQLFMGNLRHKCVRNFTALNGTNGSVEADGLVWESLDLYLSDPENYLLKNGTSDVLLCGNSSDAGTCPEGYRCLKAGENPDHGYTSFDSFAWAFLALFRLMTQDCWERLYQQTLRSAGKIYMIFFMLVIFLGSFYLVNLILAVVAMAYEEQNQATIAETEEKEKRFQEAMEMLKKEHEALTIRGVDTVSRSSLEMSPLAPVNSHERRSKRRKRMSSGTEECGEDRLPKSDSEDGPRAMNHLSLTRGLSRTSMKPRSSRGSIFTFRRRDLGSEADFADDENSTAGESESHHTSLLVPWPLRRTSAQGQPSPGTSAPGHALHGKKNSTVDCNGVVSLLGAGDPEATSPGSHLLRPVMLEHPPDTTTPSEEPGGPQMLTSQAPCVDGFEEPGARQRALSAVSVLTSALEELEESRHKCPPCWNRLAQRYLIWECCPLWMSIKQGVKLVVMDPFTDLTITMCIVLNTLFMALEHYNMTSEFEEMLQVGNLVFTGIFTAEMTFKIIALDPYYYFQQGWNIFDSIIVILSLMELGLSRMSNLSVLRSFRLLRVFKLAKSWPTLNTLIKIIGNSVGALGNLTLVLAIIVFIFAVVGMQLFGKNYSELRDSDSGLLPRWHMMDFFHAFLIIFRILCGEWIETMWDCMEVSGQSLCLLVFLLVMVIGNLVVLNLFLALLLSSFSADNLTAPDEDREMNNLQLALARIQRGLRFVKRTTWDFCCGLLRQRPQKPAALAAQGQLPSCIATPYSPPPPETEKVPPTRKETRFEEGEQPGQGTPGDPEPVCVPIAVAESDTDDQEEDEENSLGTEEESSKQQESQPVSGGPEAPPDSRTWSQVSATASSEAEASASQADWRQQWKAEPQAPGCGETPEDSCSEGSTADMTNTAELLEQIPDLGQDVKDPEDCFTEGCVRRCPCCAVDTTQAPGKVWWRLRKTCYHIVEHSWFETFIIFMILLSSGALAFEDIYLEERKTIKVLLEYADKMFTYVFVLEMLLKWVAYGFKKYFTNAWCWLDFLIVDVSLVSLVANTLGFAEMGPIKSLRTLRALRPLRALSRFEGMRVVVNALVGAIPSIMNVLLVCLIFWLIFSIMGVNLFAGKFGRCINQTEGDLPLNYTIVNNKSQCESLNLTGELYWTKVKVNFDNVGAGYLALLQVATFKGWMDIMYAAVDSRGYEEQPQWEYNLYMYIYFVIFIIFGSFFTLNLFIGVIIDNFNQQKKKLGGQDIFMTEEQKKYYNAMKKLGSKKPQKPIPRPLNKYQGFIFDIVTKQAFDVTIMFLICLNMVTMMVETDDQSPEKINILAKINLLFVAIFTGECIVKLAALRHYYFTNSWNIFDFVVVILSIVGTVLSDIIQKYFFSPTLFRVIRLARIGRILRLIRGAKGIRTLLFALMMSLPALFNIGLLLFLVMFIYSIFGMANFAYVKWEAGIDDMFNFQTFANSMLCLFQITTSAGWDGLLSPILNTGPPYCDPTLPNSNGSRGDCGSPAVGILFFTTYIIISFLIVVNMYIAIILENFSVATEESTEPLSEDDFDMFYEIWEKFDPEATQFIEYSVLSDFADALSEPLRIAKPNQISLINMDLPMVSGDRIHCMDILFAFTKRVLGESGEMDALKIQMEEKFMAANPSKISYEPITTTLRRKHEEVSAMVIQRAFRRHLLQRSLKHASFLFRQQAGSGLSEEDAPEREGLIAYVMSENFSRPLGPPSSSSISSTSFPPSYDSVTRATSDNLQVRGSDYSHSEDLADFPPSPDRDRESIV

Sequence of Sodium channel protein type 5 subunit alpha (Q14524 whole entry, the tested form may be a part): as the sequence (Q14524 whole entry) above

SMILES | inhibition (INH) (Oryctolagus cuniculus [1]) | further results
O=C1c2cc(-c3ccc(Cl)cc3)ccc2OCCN1Cc1ncccn1 | -69% | –
COc1cc(OC)nc(CN2CCOc3ccc(-c4ccc(OC(F)(F)F)cc4)cc3C2=O)n1 | -27% | –
O=C1c2cc(-c3ccc(C(F)(F)F)cc3)ccc2OCCN1Cc1cn2ccccc2n1 | -49% | inhibition at 1 µM [2]: 32 to 33%
CC(C)(C)c1ccc(-c2ccc3c(c2)C(=O)N(Cc2ncccn2)CCO3)cc1 | -50% | –
O=C1c2cc(C#Cc3ccc(C(F)(F)F)cc3)ccc2OCCN1Cc1ncccn1 | -49% | –
O=C1c2cc(-c3ccc(C(F)(F)F)cc3)ccc2OCCN1Cc1ncccn1 | -62% | Activity (Oryctolagus cuniculus [3]): Non-Toxic; Activity (Oryctolagus cuniculus [4]): Non-Toxic; Activity (Oryctolagus cuniculus [5]): Non-Toxic; inhibition (Oryctolagus cuniculus [6]): Dose-dependent effect; inhibition (Oryctolagus cuniculus [7]): Dose-dependent effect
O=C1c2cc(-c3ccc(C(F)(F)F)cc3F)ccc2OCCN1Cc1ncccn1 | – | inhibition at 1 µM [8]: 10 to 11%
O=C(c1ncccn1)N1CCOc2ccc(-c3ccc(OC(F)(F)F)cc3)cc2C1 | -47% | –
O=C1c2cc(-c3ccc(OC(F)(F)F)cc3)ccc2OCCN1Cc1ccc2ccccc2n1 | -10% | –
O=C1c2cc(C#Cc3ccc(OC(F)(F)F)cc3)ccc2OCCN1Cc1ncccn1 | -25% | –
O=C1c2cc(-c3ccc(OC(F)(F)F)cc3)ccc2OCCN1Cn1cc(Cl)cn1 | -23% | –
O=C1c2cc(-c3ccc(OC(F)(F)F)cc3)ccc2OCCN1Cc1ncccn1 [ELECLAZINE] | -56% | Activity (Oryctolagus cuniculus [3]): Non-Toxic; Activity (Oryctolagus cuniculus [4]): Non-Toxic; Activity (Oryctolagus cuniculus [5]): Non-Toxic; inhibition (Oryctolagus cuniculus [6]): Dose-dependent effect; inhibition (Oryctolagus cuniculus [7]): Dose-dependent effect
Cc1ccnc(CN2CCOc3cnc(-c4ccc(OC(F)(F)F)cc4)cc3C2=O)n1 | -34% | –
